Results as given in ChEMBL document CHEMBL5154870, “Discovery of novel glutaminase 1 allosteric inhibitor with 4-piperidinamine linker and aromatic heterocycles” (Eur J Med Chem, 2022).

Key:
MDA-MB-436 = experiment: Antiproliferative activity against human MDA-MB-436 cells overexpressing GLS1 assessed as inhibition of cell proliferation measured after 72 hrs by MTT assay; assay type: functional, cell-based; conditions: MDA-MB-436, 72 h
HCT-116 = experiment: Antiproliferative activity against human HCT-116 cells overexpressing GLS1 assessed as inhibition of cell proliferation measured after 72 hrs by MTT assay; assay type: functional, cell-based; conditions: HCT-116, 72 h
[1] = biological target: T1, Glutaminase kidney isoform, mitochondrial (Homo sapiens, UniProt O94925); experiment: Allosteric inhibition of human GLS1 using glutamine as substrate incubated for 60 mins by NADH/NADPH-based absorbance analysis
T1 sequence (O94925 whole entry): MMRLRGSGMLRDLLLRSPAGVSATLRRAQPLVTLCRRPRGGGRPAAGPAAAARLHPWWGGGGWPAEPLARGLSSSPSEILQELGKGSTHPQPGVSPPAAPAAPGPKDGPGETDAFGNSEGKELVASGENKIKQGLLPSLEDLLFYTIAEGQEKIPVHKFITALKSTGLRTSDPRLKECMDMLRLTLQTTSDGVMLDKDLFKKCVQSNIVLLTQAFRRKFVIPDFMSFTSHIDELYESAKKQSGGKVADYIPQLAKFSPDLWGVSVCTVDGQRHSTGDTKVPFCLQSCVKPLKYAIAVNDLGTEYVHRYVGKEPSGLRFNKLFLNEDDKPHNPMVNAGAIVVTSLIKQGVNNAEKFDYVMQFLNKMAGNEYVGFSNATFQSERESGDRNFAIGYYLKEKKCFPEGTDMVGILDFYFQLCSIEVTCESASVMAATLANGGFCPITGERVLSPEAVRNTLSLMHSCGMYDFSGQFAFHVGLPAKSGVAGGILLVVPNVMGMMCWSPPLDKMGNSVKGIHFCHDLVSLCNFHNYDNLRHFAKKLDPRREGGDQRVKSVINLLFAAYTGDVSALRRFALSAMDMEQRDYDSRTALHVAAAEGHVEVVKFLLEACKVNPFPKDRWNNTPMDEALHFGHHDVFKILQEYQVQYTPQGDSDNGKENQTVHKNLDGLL

Row | SMILES | IC50 (MDA-MB-436) [µM] | IC50 (HCT-116) [µM] | IC50 [1] [µM]
1 | Cc1ccc(Cn2cc(CCC(=O)Nc3ccc(N4CC[C@H](Nc5nnc(NC(=O)Cc6ccccn6)s5)C4)nn3)nn2)cc1 | > 20 | > 20 | > 1
2 | O=C(CCc1cn(Cc2ccc(C(F)(F)F)cc2)nn1)Nc1ccc(N2CC[C@@H](Nc3nnc(NC(=O)Cc4ccccn4)s3)C2)nn1 | 0.73 | 0.51 | 0.0103
3 | Cc1ccc(Cn2cc(CCC(=O)Nc3nnc(N4CC[C@@H](Nc5nnc(NC(=O)Cc6ccccc6)s5)C4)s3)nn2)cc1 | 0.53 | 0.35 | 0.0166
4 | Cc1cccc(C)c1Cn1cc(CCC(=O)Nc2nnc(N3CCC(Nc4nnc(NC(=O)Cc5ccccc5)s4)CC3)s2)nn1 | 4.58 | 3.96 | 0.0691
5 | COc1ccc(Cn2cc(CCC(=O)Nc3ccc(N4CC[C@@H](Nc5nnc(NC(=O)Cc6ccccn6)s5)C4)nn3)nn2)cc1 | 1.54 | 0.68 | 0.0113
6 | Cc1cccc(C)c1Cn1cc(CCC(=O)Nc2ccc(N3CCC(Nc4nnc(N)s4)CC3)nn2)nn1 |  |  | > 10
7 | Cc1ccc(Cn2cc(CCC(=O)Nc3nnc(N4CCC(Nc5nnc(NC(=O)Cc6ccccc6)s5)CC4)s3)nn2)cc1 | 0.42 | 0.35 | 0.0124
8 | COc1ccc(Cn2cc(CCC(=O)Nc3ccc(N4CCC(Nc5nnc(NC(=O)Cc6ccccn6)s5)CC4)nn3)nn2)cc1OC | 6.72 | 5.75 | 0.0607
9 | Cc1ccc(Cn2cc(CCC(=O)Nc3ccc(N4CCC(Nc5nnc(N)s5)CC4)nn3)nn2)cc1 |  |  | > 10
10 | O=C(Cc1ccccc1)Nc1nnc(NC2CCN(c3nnc(NC(=O)CCc4cn(Cc5ccc(OC(F)(F)F)cc5)nn4)s3)CC2)s1 | 0.4 | 0.19 | 0.0171
11 | Cc1cccc(C)c1Cn1cc(CCC(=O)Nc2ccc(N3CCC(Nc4nnc(NC(=O)Cc5ccccn5)s4)CC3)nn2)nn1 | 6.98 | 6.09 | 0.0678
12 | COc1ccc(Cn2cc(CCC(=O)Nc3nnc(N4CC[C@H](Nc5nnc(NC(=O)Cc6ccccc6)s5)C4)s3)nn2)cc1 | > 20 | 14.2 | 0.544
13 | O=C(Cc1ccccc1)Nc1nnc(N[C@H]2CCN(c3nnc(NC(=O)CCc4cn(Cc5ccc(OC(F)(F)F)cc5)nn4)s3)C2)s1 | > 20 | 10.1 | 0.381
14 | COc1ccc(Cn2cc(CCC(=O)Nc3ccc(N4CCC(Nc5nnc(N)s5)CC4)nn3)nn2)cc1OC |  |  | > 10
15 | O=C(CCc1cn(Cc2ccc(C(F)(F)F)cc2)nn1)Nc1ccc(N2CCC(Nc3nnc(NC(=O)Cc4ccccn4)s3)CC2)nn1 | 0.84 | 0.53 | 0.0183
16 | O=C(CCc1cn(Cc2ccc(OC(F)(F)F)cc2)nn1)Nc1ccc(N2CCC(Nc3nnc(NC(=O)Cc4ccccn4)s3)CC2)nn1 | 1.02 | 1.24 | 0.0172
17 | O=C(Cc1ccccc1)Nc1nnc(N[C@@H]2CCN(c3nnc(NC(=O)CCc4cn(-c5ccc(C(F)(F)F)cc5)nn4)s3)C2)s1 | 2.03 | 0.85 | 0.0179
18 | Nc1nnc(NC2CCN(c3ccc(NC(=O)CCc4cn(Cc5ccc(C(F)(F)F)cc5)nn4)nn3)CC2)s1 |  |  | > 10
19 | O=C(Cc1ccccc1)Nc1nnc(N[C@@H]2CCN(c3nnc(NC(=O)CCc4cn(Cc5ccc(C(F)(F)F)cc5)nn4)s3)C2)s1 | 0.63 | 0.29 | 0.0124
20 | O=C(CCc1cn(Cc2ccc(OC(F)(F)F)cc2)nn1)Nc1ccc(N2CC[C@H](Nc3nnc(NC(=O)Cc4ccccn4)s3)C2)nn1 | > 20 | > 20 | > 1
21 | Cc1ccc(Cn2cc(CCC(=O)Nc3ccc(N4CCC(Nc5nnc(NC(=O)Cc6ccccn6)s5)CC4)nn3)nn2)cc1 | 0.47 | 0.57 | 0.02
22 | COc1ccc(Cn2cc(CCC(=O)Nc3ccc(N4CCC(Nc5nnc(N)s5)CC4)nn3)nn2)cc1 |  |  | > 10
23 | Nc1nnc(NC2CCN(c3ccc(NC(=O)CCc4cn(Cc5ccc(OC(F)(F)F)cc5)nn4)nn3)CC2)s1 |  |  | > 10
